Laboratory results published in patent US7659081B2, “Determination of AM-binding proteins and the association of adrenomedullin (AM) therewith” (The United States of America as represented by the …, priority 1999, dated 2010).

What was measured:
AMBP-1 (factor H) = biological target: T1, AMBP-1 (factor H) (Homo sapiens, UniProt P08603); experiment: Ligand blot competition of labeled AM binding to plasma AMBP-1; details: 7 μM unlabeled peptide, preincubation 6 hr at 4° C.
T1 construct: Total proteins derived from human plasma (2 μl) were electrophoretically fractionated; from tissue; host or cells: human plasma
T1 sequence (P08603 19-1231): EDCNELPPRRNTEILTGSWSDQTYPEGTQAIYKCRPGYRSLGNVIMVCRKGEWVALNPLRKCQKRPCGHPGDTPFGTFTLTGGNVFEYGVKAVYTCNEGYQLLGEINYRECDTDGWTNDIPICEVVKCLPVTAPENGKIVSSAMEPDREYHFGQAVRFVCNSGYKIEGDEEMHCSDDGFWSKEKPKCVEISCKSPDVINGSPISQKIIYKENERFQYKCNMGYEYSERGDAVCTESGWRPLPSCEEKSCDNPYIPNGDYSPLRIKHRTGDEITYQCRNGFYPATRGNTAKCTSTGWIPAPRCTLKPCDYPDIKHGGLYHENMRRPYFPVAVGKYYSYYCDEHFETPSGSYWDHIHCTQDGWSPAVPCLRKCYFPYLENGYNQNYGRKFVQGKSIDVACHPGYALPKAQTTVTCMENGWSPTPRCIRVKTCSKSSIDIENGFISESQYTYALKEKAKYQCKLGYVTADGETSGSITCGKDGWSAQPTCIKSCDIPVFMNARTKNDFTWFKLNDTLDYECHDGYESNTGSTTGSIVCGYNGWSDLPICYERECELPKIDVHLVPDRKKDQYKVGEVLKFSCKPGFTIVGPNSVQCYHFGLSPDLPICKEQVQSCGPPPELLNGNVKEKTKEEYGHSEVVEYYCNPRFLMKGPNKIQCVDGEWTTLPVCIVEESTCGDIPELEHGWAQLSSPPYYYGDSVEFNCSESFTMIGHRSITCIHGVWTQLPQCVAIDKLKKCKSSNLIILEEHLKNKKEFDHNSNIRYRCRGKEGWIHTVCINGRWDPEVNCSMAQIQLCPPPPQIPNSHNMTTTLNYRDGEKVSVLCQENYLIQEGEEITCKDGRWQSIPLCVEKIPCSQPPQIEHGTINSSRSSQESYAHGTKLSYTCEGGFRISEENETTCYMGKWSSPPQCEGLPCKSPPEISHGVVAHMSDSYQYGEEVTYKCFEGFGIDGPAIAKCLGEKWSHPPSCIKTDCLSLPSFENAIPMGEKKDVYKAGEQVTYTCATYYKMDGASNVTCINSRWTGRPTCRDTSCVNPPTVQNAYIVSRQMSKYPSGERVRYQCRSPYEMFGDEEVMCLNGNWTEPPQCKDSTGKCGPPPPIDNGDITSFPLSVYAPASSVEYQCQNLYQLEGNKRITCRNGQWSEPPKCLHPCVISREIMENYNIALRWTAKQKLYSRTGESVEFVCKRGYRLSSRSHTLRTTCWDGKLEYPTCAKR
Protocol: Total proteins derived from human plasma (2 μl) were electrophoretically fractionated on 3-8% Tris-acetate gel (Novex, San Diego, Calif.) under non-reducing conditions. For the ligand blotting experiment, the proteins were transferred to a […] nitrocellulose membrane that was incubated for […] with 1% Nonidet P-40 (NP-40). Non-specific binding was further blocked with a 2 hr incubation in TBS containing 0.1% ATC. Incubations with 70 nM AM labeled with biotin, fluorescein, or DNP were carried out overnight at 4° C. in blocking buffer containing 0.1% TWEEN® 20 nonionic detergent. For biotin detection, the ligand blot was incubated with an avidin-biotin-peroxidase complex and the AEC reagent (Vector Laboratories, Inc., Burlingame, Calif.). For fluorescein and DNP, the ligand blots were incubated 1 hr at room temperature with rabbit anti-fluorescein or anti-DNP IgG, respectively, (1:1000 in incubation buffer; Molecular Probes, Inc.). Anti-rabbit antibody labeled with alkaline phosphatase (1:2000; Dako Corporation, Carpenteira, Calif.) was added for 0.5 hr, and the blot was developed using 4-nitro blue tetrazolium chloride/5-bromo-4-chloro-3-indolyl phosphate (NBT/BCIP) as the color-substrate solution (Roche Molecular Biochemicals, Indianapolis, Ind.).
Following this preincubation, labeled full-length AM was introduced and incubated overnight at 4° C.

factor H = factor H (Homo sapiens, UniProt P08603); experiment: Multi-well plate competition of fluorescein-labeled AM binding to factor H; parameters: purchased Sigma; details: 50 nM fluorescein-labeled AM; factor H 5 ng/well; increasing concentrations of unlabeled competitor
Chain of factor H (P08603 19-1231): as above
Protocol: Lane 1: horseradish peroxidase (5 μg), a glycosylated protein used as positive control; Lane 2: soybean trypsin inhibitor (5 μg), a non-glycosylated protein used as negative control; Lane 3: AMBP-1 (2 μg). […] Lane 1: isoelectric focusing markers; Lane 2: AMBP-1 (4 μg). […] Lane 1: AMBP-1 (100 ng); Lane 2: AMBP-1 (200 ng); Lane 3: commercially available human factor H (50 ng); Lane 4: human plasma (0.2 μl). […] Results represent one of two independent experiments. Values represent mean and standard deviation of three determinations. “B/B0” indicates the ratio of signals generated in the presence/absence of unlabeled competitor.
Alternatively, the AM/fH interaction was analyzed using a multi-well assay. In accordance with this assay, a 96-well polyvinylchloride (PVC) plate was coated with factor H (5 ng/well, Sigma, St. Louis, Mo.). The plate was blocked with a solution containing TBS, 0.1% ATC, and 0.1% TWEEN® 20 nonionic detergent, and then incubated with fluorescein-labeled AM (50 nM) for 2 hr. Prior to the development of the assay, the wells were incubated for various time periods with PBS or 3M NaSCN pH 7.4. Following this, the plate was washed and incubated with anti-fluorescein polyclonal antibody (1:1000, Molecular Probes) and ^125I-Protein A (Amersham Pharmacia Biotech). Radioactivity was determined using a gamma counter. FIG. 6B.

- Effect on binding of fluorescein-labeled AM to factor H-coated plate (factor H): competitively inhibited
SMILES: CC[C@H](C)[C@H](NC(=O)[C@H](CCC(N)=O)NC(=O)[C@H](Cc1c[nH]cn1)NC(=O)[C@H](C)NC(=O)[C@H](CC(C)C)NC(=O)[C@H](CCCCN)NC(=O)[C@H](CCC(N)=O)NC(=O)[C@@H](NC(=O)[C@@H](NC(=O)[C@@H]1CSSC[C@H](NC(=O)CNC(=O)[C@H](Cc2ccccc2)NC(=O)[C@H](CO)NC(=O)[C@H](CCCNC(=N)N)NC(=O)[C@H](CC(C)C)NC(=O)CNC(=O)[C@H](CCC(N)=O)NC(=O)[C@H](Cc2ccccc2)NC(=O)[C@H](CC(N)=O)NC(=O)[C@H](CC(N)=O)NC(=O)[C@H](CCSC)NC(=O)[C@H](CO)NC(=O)[C@H](CCC(N)=O)NC(=O)[C@H](CCCNC(=N)N)NC(=O)[C@@H](N)Cc2ccc(O)cc2)C(=O)N[C@@H](CCCNC(=N)N)C(=O)N[C@@H](Cc2ccccc2)C(=O)NCC(=O)N[C@@H]([C@@H](C)O)C(=O)N1)[C@@H](C)O)C(C)C)C(=O)N[C@@H](Cc1ccc(O)cc1)C(=O)N[C@@H](CCC(N)=O)C(=O)N[C@@H](Cc1ccccc1)C(=O)N[C@H](C(=O)N[C@@H](CC(=O)O)C(=O)N[C@@H](CCCCN)C(=O)N[C@@H](CC(=O)O)C(=O)N[C@@H](CCCCN)C(=O)N[C@@H](CC(=O)O)C(=O)N[C@@H](CC(N)=O)C(=O)N[C@H](C(=O)N[C@@H](C)C(=O)N1CCC[C@H]1C(=O)N[C@@H](CCCNC(=N)N)C(=O)N[C@@H](CO)C(=O)N[C@@H](CCCCN)C(=O)N[C@H](C(=O)N[C@@H](CO)C(=O)N1CCC[C@H]1C(=O)N[C@@H](CCC(N)=O)C(=O)NCC(=O)N[C@@H](Cc1ccc(O)cc1)C(N)=O)[C@@H](C)CC)C(C)C)[C@@H](C)O [AM, Adrenomedullin]
- Competition for labeled AM/AMBP-1 complex on ligand blot (AMBP-1 (factor H)): able to dissociate the AM/AMBP-1 (AM/fH) complex
